Measurements from PMC8305652, “Copper(II) Complexes Containing Natural Flavonoid Pomiferin Show Considerable In Vitro Cytotoxicity and Anti-inflammatory Effects” (International Journal of Molecular Sciences, 2021).

Assays:
[1] = system: caspase 3 (Casp-3) in THP-1 cells; assay: Western blotting of apoptosis-related proteins; assay type: cell-based, human; conditions: THP-1, complexes 4 µM, 24 h, Western blot
Description: In addition to the above-mentioned methods, the Western blotting method was used to shed light on the mechanisms associated with caspase 3 activation in the THP-1 cells. Two and a half milliliters of floating THP-1 monocytes resuspended in a serum-free RPMI 1640 medium were seeded into 6-well plates at the concentration of 10^6 cells/mL. Two hours later, complexes 3 and 5 were added at the concentration level of 4 µM. After 24 h incubation, the cells were collected by centrifugation (3000 g/5 min/4 °C), washed by cold PBS and resuspended in an ice-cold lysis buffer (50 mM Tris-HCl pH 7.5, 1 mM EGTA, 1 mM EDTA, 1 mM sodium orthovanadate, 50 mM sodium fluoride, 5 mM sodium pyrophosphate, 270 mM sucrose) with Roche cOmplete protease inhibitors (Roche Diagnostics, Basel, Switzerland). The cell lysates were centrifuged at 3000 g/5 min/4 °C and supernatants were mixed with a 5x Laemmli buffer [containing 250 mM Tris-HCl pH 6.8, 10% (w/v) SDS, 30% (v/v) glycerol, 5% (v/v) β-mercaptoethanol, 0.04% (w/v) bromphenol blue] and incubated at 70 °C for 5 min. […] The membranes were incubated at 4 °C for 16 h with a primary anti-cleaved caspase 3 (p17) antibody at the dilution 1:1000 (Cell Signaling, Danvers, MA, USA; products No. 9664), and an Apoptosis WB Cocktail (Abcam, Cambridge, UK; product No. ab136812) at the dilution recommended by the provider to detect β-actin, cleaved poly-(ADP-ribose) polymerase (PARP) and pro-caspase 3. After washing in a TBST buffer, the secondary anti-rabbit IgG antibody (Sigma-Aldrich, product No. A0545) was diluted 1:2500 and applied to the membranes, which were then incubated for 1 h at the laboratory temperature (~22 °C). The amount of bound secondary antibody was determined using an ECL reagent (Bio-Rad, Hercules, CA, USA). Chemiluminescence was detected using a Syngene PXi4 chemiluminescence imaging system (Cambridge, UK).

NF-κB = system: NF-κB; design: method as in PMID 23947936; conditions: 1.25 µM; cited from earlier work
[2] = system: ACHN, NCI-H23, PC-3, MDA-MB-231, LOX-IMVI, colon carcinoma cell lines; design: method as in PMID 17662606; conditions: 24 h of incubation, range over cell lines; cited from earlier work
[3] = system: HuCCA-1, KB, HeLa and T47D cell lines; design: method as in PMID 21922909; conditions: 48 h incubation, range over cell lines; cited from earlier work

Molecule	levels of pro-caspase 3 (pro-Casp-3) [1]	proteolytically activated Casp-3 (verified by cleaved PARP-1) ([1]; cisplatin 10 µM)	NF-κB activation by inhibition of IκB degradation (NF-κB)	GI50 [2]	ED50 [3]
(3-(3,4-dihydroxyphenyl)-8,8-dimethyl-6-(3-methylbut-2-en-1-yl)-4H,8H-benzo[1,2-b:3,4-b′]dipyran-4-one-5-olato-κ^2O4:O5)(dipyrido[3,2-a:2′,3′-c]phenazine–κ^2N4:N5)copper(II) nitrate methanol solvate [Complex 5]	dramatically decreased	only minor activity of Casp-3			
CC(C)=CCc1c2c(c3occ(-c4ccc(O)c(O)c4)c(=O)c3c1O)C=CC(C)(C)O2 [pomiferin, 3-(3,4-dihydroxyphenyl)-5-hydroxy-8,8-dimethyl-6-(3-methylbut-2-ene-1-yl)-4H,8H-benzo[1,2-b:3,4-b′]dipyran-4-one]			inhibited NF-κB activation	1320 to 13300 nM	600 to 24000 nM
